Each structure is given as a SMILES string.

What all share (format): cell-based
What all share (details): 1 nM mibolerone, 24 hours

The target in assay [1] is T1, AR (Homo sapiens, UniProt P10275, T878A).
T1 sequence (P10275 1-920 T878A): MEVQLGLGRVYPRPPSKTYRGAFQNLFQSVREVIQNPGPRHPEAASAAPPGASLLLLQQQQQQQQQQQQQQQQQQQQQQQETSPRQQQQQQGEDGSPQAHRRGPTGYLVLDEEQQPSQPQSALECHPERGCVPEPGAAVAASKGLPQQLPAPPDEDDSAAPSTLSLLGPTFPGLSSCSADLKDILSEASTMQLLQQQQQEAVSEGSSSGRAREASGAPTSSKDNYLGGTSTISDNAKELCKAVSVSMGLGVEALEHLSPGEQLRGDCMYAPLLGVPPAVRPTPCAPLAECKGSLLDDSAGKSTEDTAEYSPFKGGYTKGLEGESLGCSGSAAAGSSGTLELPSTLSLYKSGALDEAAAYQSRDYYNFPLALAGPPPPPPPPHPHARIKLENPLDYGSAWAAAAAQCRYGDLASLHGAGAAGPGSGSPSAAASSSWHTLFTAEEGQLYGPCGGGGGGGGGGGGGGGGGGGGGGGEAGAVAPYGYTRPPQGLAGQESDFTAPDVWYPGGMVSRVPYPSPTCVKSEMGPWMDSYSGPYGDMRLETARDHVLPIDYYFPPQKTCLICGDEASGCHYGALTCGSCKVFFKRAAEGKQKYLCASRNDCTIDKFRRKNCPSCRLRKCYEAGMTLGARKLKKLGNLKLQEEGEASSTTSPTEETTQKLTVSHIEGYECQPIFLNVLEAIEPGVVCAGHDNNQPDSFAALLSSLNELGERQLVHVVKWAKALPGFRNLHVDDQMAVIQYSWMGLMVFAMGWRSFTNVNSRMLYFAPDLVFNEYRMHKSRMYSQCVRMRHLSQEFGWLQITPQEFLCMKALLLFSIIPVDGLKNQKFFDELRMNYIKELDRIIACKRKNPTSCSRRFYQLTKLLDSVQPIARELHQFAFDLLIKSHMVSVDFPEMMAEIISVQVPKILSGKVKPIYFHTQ
Briefly: PSAenh(ARE)-E4-LUC luciferase reporter assay in LNCaP cells. Set-up: endogenous in cells. The procedure:
The cells were harvested after an additional 24 hours. The transfection efficiency was typically 50-70%.
(In a reporter assay the amount or activity of a reporter protein is the signal.)

For assay [2], the target named is T1, AR. As to the kind of experiment: PSA mRNA expression (Northern blot) in LNCaP cells. More on the design: The androgen depletion independent (ADI) LNCaP-derived C4-2 cell line was purchased from UroCor; endogenous in cells; host or cells: C4-2.
Experimental: (§1) For androgen response experiments, LNCaP and C4-2 cells were grown in serum-free medium or medium supplemented with 10% charcoal stripped (steroid depleted) serum (CSS) for 48 hours. […] The cells were cultured for an additional 24 hours and then harvested. For C4-2 siRNA-transfection experiments, culture medium was replaced 24 hours post-transfection with RPMI containing 5% CSS. The cells were harvested after 48 hours.
Total cellular RNA was isolated using acid-guanidinium phenol/chloroform extraction as described elsewhere (Chomczynski and Sacchi, Anal Biochem. 162:156-9, (1987)). Equal amounts of RNA (15 μg per lane) were fractionated on 1% denaturing formaldehyde-agarose gels. RNA was transferred to Hybond nylon membranes (Amersham, Piscataway, N.J.), UV cross-linked, and then hybridized with cDNA probes specific for PSA or GAPDH labeled with α^32P-dCTP using a RadPrime labeling kit (Invitrogen). Autoradiography was performed at −80° C. using an intensifier screen (Kodak).
The target in assay [3] is T1, AR. As to the kind of experiment: PSA mRNA expression (Northern blot) in C4-2 cells. More on the design: The androgen depletion independent (ADI) LNCaP-derived C4-2 cell line was purchased from UroCor; endogenous in cells; host or cells: C4-2.
Experimental: as §1
For siRNA transfections, C4-2 cells were seeded at a density of 1.8×10^6 cells on 10 cm dishes in antibiotic-free RPMI 1640 containing 10% FBS. Cells were transfected 24 hours later with 500 pmol of a pool of four siRNAs targeted to the AR (AR SmartPool; Dharmacon, Lafayette, Colo.), or a pool of four non-targeted, control siRNAs (Dharmacon) using 25 μg Lipofectamine (Invitrogen, Carlsbad, Calif.) according to the manufacturer's protocol.
Total cellular RNA was isolated using acid-guanidinium phenol/chloroform extraction as described elsewhere (Chomczynski and Sacchi, Anal Biochem. 162:156-9, (1987)). Equal amounts of RNA (15 μg per lane) were fractionated on 1% denaturing formaldehyde-agarose gels. RNA was transferred to Hybond nylon membranes (Amersham, Piscataway, N.J.), UV cross-linked, and then hybridized with cDNA probes specific for PSA or GAPDH labeled with α^32P-dCTP using a RadPrime labeling kit (Invitrogen). […]

With `C[C@@H]1CC2=CC(=O)CC[C@@H]2[C@H]2CC[C@@]3(C)[C@@H](CC[C@]3(C)O)[C@@H]21` [mibolerone], on AR [1], the “activation of the ARE-driven promoter PSAenh(ARE)E4-LUC” value is reported as “robust activation”. The “PSA mRNA expression on androgen treatment” value on AR [2] is “induced high levels of PSA mRNA expression”. In addition, the “PSA expression on androgen treatment” value at AR [3] is “further increased”.
